The values below are quoted from earlier work in patent publication US20100047334A1, “PH SENSITIVE LIPOSOME COMPOSITIONS FOR CONTROLLING SURFACE TOPOGRAPHY AND BINDING REACTIVITY IN FUNCTIONALIZED LIPOSOMES” (priority 2006, published 2010).

The target in one data set is streptavidin (Streptomyces avidinii, UniProt P22629).
For data set [1] the following is noted: highest reported value; 0.1 ionic strength; dimyristoyl- and dipalmitoyl-phosphatidylserine membranes.

Like-named read-outs stand apart in the source and are kept apart here.

Sequence of streptavidin (P22629 25-183): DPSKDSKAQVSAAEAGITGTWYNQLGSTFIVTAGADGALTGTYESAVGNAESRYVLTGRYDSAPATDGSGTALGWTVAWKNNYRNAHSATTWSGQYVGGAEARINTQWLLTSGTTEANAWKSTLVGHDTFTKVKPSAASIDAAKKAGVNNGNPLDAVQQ

For `CCCCCCCCCCCCCCCC(=O)OC[C@H](COP(=O)([O-])OCC[N+](C)(C)C)OC(=O)CCCCCCCCCCCCCCC` [DPPC lipids, 1,2-Dipalmitoyl-sn-Glycero-3-Phosphocholine], the lateral diffusion coefficient reads like this: (at 37° C. (gel)) 10^−10 cm^2/s; (in the fluid state) 5×10^−8 cm^2/s.

Turning to `O=C(O)CCCC[C@@H]1SC[C@@H]2NC(=O)N[C@@H]21` [biotin], the “Ka of the biotin-streptavidin link” value at streptavidin is listed as 10^13 M^−1.

As for phosphatidylserine, in data set [1], the “apparent pKa of phosphatidylserine's carboxyl group” value was 5.5.
